These results are taken from patent US20260217711A1, “TRIAZOLOPYRIDINYL ETHER LINKED COMPOUNDS AS KINASE INHIBITORS” (Bristol-Myers Squibb Company, priority 2023, published 2026).

One may read the IC50 as the midpoint of a concentration-inhibition curve.

The first experiment has as its system MLKL phosphorylation (pMLKL) in HT29-L23 cells. Put plainly: MLKL Phosphorylation High-Content Assay. In kind it is cell-based. The settings on record: Homo sapiens, 6 h, necroptosis induced with human TNFα, SMAC mimetic and Z-VAD, read-out: LE pMLKL HC IC50. As for the experimental part:
Following 6 h incubation at 37° C. […] MLKL phosphorylation was detected using anti-MLKL (phospho […]) antibody (Abcam #ab187091) (1:1000 dilution in Blocking Buffer [PBS supplemented with 0.1% BSA]) with ON incubation at 4° C. […] Following another three cycles of washes in PBS, the microplates were sealed, and cellular images were acquired in the Cellomics ArrayScan VTI high-content imager equipped with an X1 camera. […] The image sets were analyzed using the Compartmental Analysis Bioapplication software (Cellomics). The level of MLKL phosphorylation was quantified as […].
As for `Nc1nc2cc(-c3ccc(Cl)c(OCCC(F)C(O)c4ccc(F)cc4)c3F)ccn2n1` (single isomer, unassigned) [Example 82, 4-(3-(2-amino-[1,2,4]triazolo[1,5-a]pyridin-7-yl)-6-chloro-2-fluorophenoxy)-2-fluoro-1-(4-fluorophenyl)butan-1-ol], the IC50 stood at 26 nM.

The same experiment, now with this note: necroptosis induced with human TNFα, SMAC mimetic and Z-VAD, 6 h, read-out: LE pMLKL HC IC50.
As to `Nc1nc2cc(-c3cccc(OCCC(F)(F)C(O)c4ccc(F)cc4)c3F)ccn2n1` (single isomer, unassigned) [Example 72, 4-(3-(2-amino-[1,2,4]triazolo[1,5-a]pyridin-7-yl)-2-fluorophenoxy)-2,2-difluoro-1-(4-fluorophenyl)butan-1-ol], the IC50 was found to be 1 nM.

Regarding `CC(O)(c1ccc(F)cc1)C(F)(F)CCOc1c(F)ccc(-c2ccc3nc(N)nn3c2)c1F` (single isomer, unassigned) [Example 75, 5-(3-(2-amino-[1,2,4]triazolo[1,5-a]pyridin-6-yl)-2,6-difluorophenoxy)-3,3-difluoro-2-(4-fluorophenyl)pentan-2-ol], the IC50 turned out to be 200 nM.

With `CC(O)(c1ccc(F)cc1)C(F)(F)CCOc1c(F)ccc(-c2ccc3nc(N)nn3c2)c1F` (single isomer, unassigned) [Example 76, 5-(3-(2-amino-[1,2,4]triazolo[1,5-a]pyridin-6-yl)-2,6-difluorophenoxy)-3,3-difluoro-2-(4-fluorophenyl)pentan-2-ol], the half-maximal inhibitory concentration (IC50) is 2 nM.

Take `CC(O)(c1ccc(F)cc1)C(F)(F)CCOc1ccc(F)c(-c2ccn3nc(N)nc3c2)n1` (single isomer, unassigned) [Example 77, 5-((6-(2-amino-[1,2,4]triazolo[1,5-a]pyridin-7-yl)-5-fluoropyridin-2-yl)oxy)-3,3-difluoro-2-(4-fluorophenyl)pentan-2-ol]: the IC50 is 430 nM.

With `CC(O)(c1ccc(F)cc1)C(F)(F)CCOc1ccc(F)c(-c2ccn3nc(N)nc3c2)n1` (single isomer, unassigned) [Example 78, 5-((6-(2-amino-[1,2,4]triazolo[1,5-a]pyridin-7-yl)-5-fluoropyridin-2-yl)oxy)-3,3-difluoro-2-(4-fluorophenyl)pentan-2-ol], the IC50 worked out at 13 nM.

Turning to `CC(O)(c1ccc(F)cc1)C(F)(F)CCOc1ccc(Cl)c(-c2ccn3nc(N)nc3c2)n1` (single isomer, unassigned) [Example 79, 5-((6-(2-amino-[1,2,4]triazolo[1,5-a]pyridin-7-yl)-5-chloropyridin-2-yl)oxy)-3,3-difluoro-2-(4-fluorophenyl)pentan-2-ol], the IC50 amounted to 160 nM.

Regarding `Nc1nc2cc(-c3ccc(Cl)c(OCCC(F)C(O)c4ccc(F)cc4)c3F)ccn2n1` (single isomer, unassigned) [Example 83, 4-(3-(2-amino-[1,2,4]triazolo[1,5-a]pyridin-7-yl)-6-chloro-2-fluorophenoxy)-2-fluoro-1-(4-fluorophenyl)butan-1-ol], the IC50 was determined as 26 nM.

For `Nc1nc2cc(-c3cccc(OCCC(F)C(O)c4ccc(F)cc4)c3F)ccn2n1` (single isomer, unassigned) [Example 84, 4-(3-(2-amino-[1,2,4]triazolo[1,5-a]pyridin-7-yl)-2-fluorophenoxy)-2-fluoro-1-(4-fluorophenyl)butan-1-ol], the 50% inhibitory concentration (IC50) came out at 3.2 nM.

`Nc1nc2cc(-c3cccc(OCCC(F)C(O)c4ccc(F)cc4)c3F)ccn2n1` (single isomer, unassigned) [Example 85, 4-(3-(2-amino-[1,2,4]triazolo[1,5-a]pyridin-7-yl)-2-fluorophenoxy)-2-fluoro-1-(4-fluorophenyl)butan-1-ol]: the concentration for half-maximal inhibition (IC50) came out at 0.9 nM.

For `Nc1nc2cc(-c3cccc(OCCC(F)C(O)c4ccc(F)cc4)c3F)ccn2n1` (single isomer, unassigned) [Example 86, 4-(3-(2-amino-[1,2,4]triazolo[1,5-a]pyridin-7-yl)-2-fluorophenoxy)-2-fluoro-1-(4-fluorophenyl)butan-1-ol], the IC50 came to 17 nM.

Turning to `Nc1nc2cc(-c3cccc(OCCC(F)C(O)c4ccc(F)cc4)c3F)ccn2n1` (single isomer, unassigned) [Example 87, 4-(3-(2-amino-[1,2,4]triazolo[1,5-a]pyridin-7-yl)-2-fluorophenoxy)-2-fluoro-1-(4-fluorophenyl)butan-1-ol], the half-maximal inhibitory concentration (IC50) was determined as 0.4 nM.

Regarding `CC(O)(c1ccc(F)cc1)C(F)CCOc1cccc(-c2ccn3nc(N)nc3c2)c1F` (single isomer, unassigned) [Example 88, 5-(3-(2-amino-[1,2,4]triazolo[1,5-a]pyridin-7-yl)-2-fluorophenoxy)-3-fluoro-2-(4-fluorophenyl)pentan-2-ol], the IC50 turned out to be 13 nM.

For the molecule `CC(O)(c1ccc(F)cc1)C(F)CCOc1cccc(-c2ccn3nc(N)nc3c2)c1F` (single isomer, unassigned) [Example 89, 5-(3-(2-amino-[1,2,4]triazolo[1,5-a]pyridin-7-yl)-2-fluorophenoxy)-3-fluoro-2-(4-fluorophenyl)pentan-2-ol], the IC50 came out at 15 nM.

Regarding `CC(O)(c1ccc(F)cc1)C(F)CCOc1cccc(-c2ccn3nc(N)nc3c2)c1F` (single isomer, unassigned) [Example 90, 5-(3-(2-amino-[1,2,4]triazolo[1,5-a]pyridin-7-yl)-2-fluorophenoxy)-3-fluoro-2-(4-fluorophenyl)pentan-2-ol], the IC50 was 3 nM.

With `CC(O)(c1ccc(F)cc1)C(F)CCOc1cccc(-c2ccn3nc(N)nc3c2)c1F` (single isomer, unassigned) [Example 91, 5-(3-(2-amino-[1,2,4]triazolo[1,5-a]pyridin-7-yl)-2-fluorophenoxy)-3-fluoro-2-(4-fluorophenyl)pentan-2-ol], the IC50 was determined as 0.3 nM.

Turning to `CC(O)(c1ccc(F)cc1)C(F)CCOc1cc(-c2ccn3nc(N)nc3c2)cc(F)c1F` (single isomer, unassigned) [Example 92, 5-(5-(2-amino-[1,2,4]triazolo[1,5-a]pyridin-7-yl)-2,3-difluorophenoxy)-3-fluoro-2-(4-fluorophenyl)pentan-2-ol], the concentration for half-maximal inhibition (IC50) was 1390 nM.

Consider `CC(O)(c1ccc(F)cc1)C(F)CCOc1cc(-c2ccn3nc(N)nc3c2)cc(F)c1F` (single isomer, unassigned) [Example 93, 5-(5-(2-amino-[1,2,4]triazolo[1,5-a]pyridin-7-yl)-2,3-difluorophenoxy)-3-fluoro-2-(4-fluorophenyl)pentan-2-ol], for which the IC50 amounted to 140 nM.

Regarding `CC(O)(c1ccc(F)cc1)C(F)CCOc1c(F)ccc(-c2ccn3nc(N)nc3c2)c1F` (single isomer, unassigned) [Example 94, 5-(3-(2-amino-[1,2,4]triazolo[1,5-a]pyridin-7-yl)-2,6-difluorophenoxy)-3-fluoro-2-(4-fluorophenyl)pentan-2-ol], the half-maximal inhibitory concentration (IC50) worked out at 97 nM.

As to `CC(O)(c1ccc(F)cc1)C(F)CCOc1c(F)ccc(-c2ccn3nc(N)nc3c2)c1F` (single isomer, unassigned) [Example 95, 5-(3-(2-amino-[1,2,4]triazolo[1,5-a]pyridin-7-yl)-2,6-difluorophenoxy)-3-fluoro-2-(4-fluorophenyl)pentan-2-ol], the 50% inhibitory concentration (IC50) was found to be 4 nM.

Take `CC(O)(c1ccc(F)cc1)C(F)CCOc1c(F)ccc(-c2ccn3nc(N)nc3c2)c1F` (single isomer, unassigned) [Example 96, 5-(3-(2-amino-[1,2,4]triazolo[1,5-a]pyridin-7-yl)-2,6-difluorophenoxy)-3-fluoro-2-(4-fluorophenyl)pentan-2-ol]: the IC50 is 2 nM.
